Laboratory results from patent US12692463B2, “Blends of alcohol ethoxylate and methyl ester sulfonate in unit dose products for improved mildness” (Henkel AG & Co. KGaA, priority 2023, dated 2026).

Experiment: Percent swelling of water-soluble film strips submerged in detergent formula
Assay type: physicochemical
Conditions: Minitab mixture regression on solvent component proportions, Formulas 7-16
Method: The term % swelling as used in the present application means the percent increase or decrease in weight, for example the weight of a pouch strip, such as a polyvinyl alcohol strip, following submersion in a detergent composition for a given period of time, for example twenty-four hours (hr). The % swelling is calculated as described in the examples by taking a post-soaking weight, subtracting an initial, pre-soaking weight, and dividing by the initial, pre-soaking weight. To measure the percent (%) swelling, a fresh sheet of film was traced and cut into three identical film strips (3 cm wide by 8.5 cm long) for each formula being tested. Strips were labeled #1, #2, and #3 and placed into a tared petri dish one by one, recording the weights of each piece of film individually. Strips #1 and #2 were placed parallel to one another on the bottom of the petri dish and strip #3 was laid perpendicularly over strips #1 and #2. The petri dish was then filled half way, ensuring all film strips were submerged in the formula being tested. The petri dish was wrapped with parafilm, sealing around the edge of the petri dish. […] The cleaned film strip #3 was placed into a clean, tared petri dish lid, and the final weight of the film strip was recorded. […] Percent (%) swelling ratios were determined for Formulas 7-16 using polyvinyl alcohol (PVA) strips. […]

Row | estimated regression coefficient for % swelling | SMILES
1 | 0.8037 | OCC(O)CO [Glycerin]
2 | 0.4263 | CC(O)CO (centres unmarked) [PG, Propylene Glycol]
